The values below come from PubChem BioAssay (NCI).

Test systems include MDA-MB-231 breast; LOX IMVI melanoma; NCI-H522 lung; SNB-19 CNS; M14 melanoma; MOLT-4 leukemia; K-562 leukemia; SK-MEL-5 melanoma; KM12 colon; SK-OV-3 ovarian.
Assay in all cases: inhibition of tumour cell growth, NCI panel, 48 h

The structures appear in SMILES notation.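 These data come from cells grown in 96-well plates and exposed to compound for 48 hours at five concentrations. GI50 is the concentration that inhibits growth by half. TGI marks complete inhibition of growth.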

In the case of `O=[N+]([O-])c1ccc(/C=C\c2ccc3c(c2)OCO3)c([N+](=O)[O-])c1`, the TGI is 33.2 µM in the assay on MDA-MB-231 breast; 27 µM with LOX IMVI melanoma; 25.6 µM in the assay with NCI-H522 lung; 33.6 µM in the assay with SNB-19 CNS; 31.1 µM in the assay with M14 melanoma; 33.8 µM with MOLT-4 leukemia. Further, the TGI with K-562 leukemia was 50.2 µM; with SK-MEL-5 melanoma, 38.9 µM; in the assay with KM12 colon, 54 µM; in the assay on SK-OV-3 ovarian, 35.4 µM.

With `CCN(CCNc1ccc(C)c2sc3cc(Cl)ccc3c(=O)c12)CC(C)(C)O`, the GI50 in the assay on MDA-MB-231 breast is 2.31 µM; in the assay with LOX IMVI melanoma, 3.07 µM; in the assay on NCI-H522 lung, 3.82 µM; in the assay on SNB-19 CNS it was 10.1 µM; in the assay with M14 melanoma it was 1.95 µM; with MOLT-4 leukemia it was 15.5 µM. Besides, the GI50 in the assay with K-562 leukemia was 3.19 µM; with SK-MEL-5 melanoma, 1.83 µM; with KM12 colon, 2.32 µM; in the assay with SK-OV-3 ovarian it was 6.21 µM. Further, the TGI with MDA-MB-231 breast turned out to be 11.5 µM; in the assay with LOX IMVI melanoma, 10.3 µM; in the assay with NCI-H522 lung it was 20 µM; with SNB-19 CNS, 25.8 µM; in the assay with M14 melanoma it was 4.01 µM; in the assay with MOLT-4 leukemia, 73.7 µM. Moreover, the TGI turned out to be 11.7 µM in the assay with K-562 leukemia, 3.49 µM in the assay on SK-MEL-5 melanoma, 5.54 µM with KM12 colon and 20.4 µM in the assay with SK-OV-3 ovarian.

For the compound `Cc1ccccc1CNc1c2ccccc2nc2ccccc12`, the GI50 in the assay on MDA-MB-231 breast is 1.7 µM; in the assay on LOX IMVI melanoma it was 1.49 µM; in the assay with NCI-H522 lung, 1.61 µM; in the assay with SNB-19 CNS, 3.27 µM; in the assay with M14 melanoma, 1.51 µM; with MOLT-4 leukemia, 2.67 µM. The GI50 in the assay with K-562 leukemia was 2.32 µM; in the assay with SK-MEL-5 melanoma, 1.69 µM; in the assay with KM12 colon, 2.95 µM; with SK-OV-3 ovarian, 2.62 µM. For the same compound, the TGI in the assay with MDA-MB-231 breast worked out at 4.19 µM; with LOX IMVI melanoma it was 2.93 µM; in the assay with NCI-H522 lung it was 4.32 µM; with SNB-19 CNS, 13.7 µM; in the assay with M14 melanoma it was 3.2 µM; in the assay with MOLT-4 leukemia it was 8.14 µM. Also, the TGI in the assay on K-562 leukemia is 11.4 µM; in the assay with SK-MEL-5 melanoma, 3.05 µM; in the assay on KM12 colon, 10.1 µM; in the assay on SK-OV-3 ovarian, 9.91 µM.

Regarding `Cc1n(Cc2ccc3ccccc3n2)cc[n+]1Cc1ccc2ccccc2c1`, the GI50 in the assay with MDA-MB-231 breast was 0.665 µM; with LOX IMVI melanoma it was 1.05 µM; in the assay on NCI-H522 lung, 0.312 µM; in the assay on SNB-19 CNS, 0.438 µM; in the assay on M14 melanoma, 1.13 µM; with MOLT-4 leukemia, 0.948 µM. The GI50 was 0.422 µM in the assay with K-562 leukemia, 0.533 µM with SK-MEL-5 melanoma, 0.488 µM with KM12 colon and 1.16 µM in the assay with SK-OV-3 ovarian. Also, the TGI turned out to be 4.08 µM in the assay on MDA-MB-231 breast; 3.77 µM in the assay with LOX IMVI melanoma; 1.58 µM in the assay on NCI-H522 lung; 12.1 µM with SNB-19 CNS; 10.7 µM in the assay with M14 melanoma; 10.6 µM with MOLT-4 leukemia. Further, the TGI in the assay with K-562 leukemia stood at 12.9 µM; with SK-MEL-5 melanoma it was 1.61 µM; in the assay on KM12 colon, 3.8 µM; in the assay on SK-OV-3 ovarian it was 5.03 µM.

With `CCN(CC)C(=O)CCCCCn1c2ccccc2c2c3c(c4c5ccccc5[nH]c4c21)C(=O)N(O)C3=O`, the GI50 with MDA-MB-231 breast was 5.52 µM; in the assay on LOX IMVI melanoma, 1.13 µM; in the assay on NCI-H522 lung, 1.41 µM; with SNB-19 CNS it was 4.7 µM; in the assay with M14 melanoma, 4.49 µM; with MOLT-4 leukemia it was 2.05 µM. The GI50 is 4.18 µM in the assay on K-562 leukemia, 2 µM in the assay on SK-MEL-5 melanoma, 3.31 µM with KM12 colon and 22.2 µM with SK-OV-3 ovarian. The TGI with MDA-MB-231 breast is 82.5 µM; with LOX IMVI melanoma, 2.88 µM; in the assay on NCI-H522 lung, 3.13 µM; in the assay on SNB-19 CNS it was more than 100 µM; in the assay with M14 melanoma it was 39.3 µM; in the assay with MOLT-4 leukemia it was 6.13 µM. For the same compound, the TGI with K-562 leukemia was more than 100 µM; in the assay on SK-MEL-5 melanoma it was 5.02 µM; in the assay with KM12 colon it was 14.7 µM; in the assay with SK-OV-3 ovarian it was 92.1 µM.

On to `CCc1c(C#N)c(SC(C(N)=O)c2ccccc2)nc(N2CCC(N)CC2)c1C#N` (stereo not given), for which the GI50 in the assay with MDA-MB-231 breast was 14.7 µM; with LOX IMVI melanoma it was 14.3 µM; in the assay on NCI-H522 lung, 12.9 µM; with SNB-19 CNS, 14.9 µM; in the assay on M14 melanoma, 16.2 µM; in the assay with MOLT-4 leukemia, 11.5 µM. Besides, the GI50 with K-562 leukemia is 12.4 µM; in the assay with SK-MEL-5 melanoma, 15.1 µM; in the assay on KM12 colon, 15.9 µM; in the assay on SK-OV-3 ovarian, 15.7 µM. In addition, the TGI in the assay with MDA-MB-231 breast came out at 28 µM; in the assay on LOX IMVI melanoma it was 27.4 µM; with NCI-H522 lung, 27.1 µM; in the assay on SNB-19 CNS it was 28.5 µM; in the assay with M14 melanoma, 30.6 µM; with MOLT-4 leukemia, 31.2 µM. The TGI in the assay on K-562 leukemia worked out at 28.6 µM; in the assay on SK-MEL-5 melanoma, 28.3 µM; in the assay with KM12 colon, 31.4 µM; with SK-OV-3 ovarian it was 29.8 µM.

As for `O=C(Nc1nc2c(s1)CCc1c-2c(Br)n(Cc2ccccc2)c1Br)c1ccccc1`, the GI50 was 2.16 µM in the assay with MDA-MB-231 breast; 5.53 µM with LOX IMVI melanoma; 4.41 µM with NCI-H522 lung; 7.41 µM in the assay on SNB-19 CNS; 9.94 µM in the assay on M14 melanoma; 22.7 µM in the assay with MOLT-4 leukemia. For the same compound, the GI50 with K-562 leukemia is 22.9 µM; in the assay with SK-MEL-5 melanoma, 2.17 µM; in the assay with KM12 colon, 6.19 µM; in the assay with SK-OV-3 ovarian it was 3.23 µM. For the same compound, the TGI was 32.6 µM in the assay with MDA-MB-231 breast; more than 100 µM in the assay with LOX IMVI melanoma; 32.5 µM in the assay on NCI-H522 lung; more than 100 µM with SNB-19 CNS; more than 100 µM in the assay on M14 melanoma; 64.4 µM in the assay on MOLT-4 leukemia. For the same compound, the TGI is more than 100 µM with K-562 leukemia, 11.6 µM with SK-MEL-5 melanoma, more than 100 µM with KM12 colon and 16.3 µM with SK-OV-3 ovarian.
